Article PMC7045694 (ACS Nano, 2020)

Target: T1, LBP (leucine-binding protein) (Escherichia coli, UniProt P04816)
T1 sequence (P04816 24-369): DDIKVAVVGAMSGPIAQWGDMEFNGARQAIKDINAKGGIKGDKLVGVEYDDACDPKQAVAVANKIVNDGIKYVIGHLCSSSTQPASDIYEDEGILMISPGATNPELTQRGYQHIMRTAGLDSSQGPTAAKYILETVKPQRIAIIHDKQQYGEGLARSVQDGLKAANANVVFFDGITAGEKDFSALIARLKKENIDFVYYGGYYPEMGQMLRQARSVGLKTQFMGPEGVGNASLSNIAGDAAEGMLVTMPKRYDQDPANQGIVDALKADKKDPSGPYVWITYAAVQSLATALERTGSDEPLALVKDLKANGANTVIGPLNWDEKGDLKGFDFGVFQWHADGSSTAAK

Compound `CC(C)C[C@H](N)C(=O)O` [leucine] has a Kd of 86 ± 19 nM.
